Structures are written as SMILES.

Data on 35 compounds can be found in the Deep4Chem optical property database.

A short description of this series: solvent given as SMILES.

Consider `CCCCN1C(=O)c2cccc3c(OC)ccc(c23)C1=O`, for which the absorption maximum runs as follows: (in CC#N) 376 nm; (in CS(C)=O) 484 nm; (in Cc1ccccc1) 362 nm. The compound `COC(=O)c1cc(=O)n(C)c2cc(-c3cc(OC)c(OC)c(OC)c3)sc12` yielded an absorption maximum (in CC#N) of 398 nm and an absorption maximum (in ClCCl) of 400 nm. In the case of `Cn1nc(-c2ccc(C#N)cc2)cc1-c1ccccc1`, the absorption maximum (in ClCCl) stood at 282 nm. With `CCNc1cc2oc(=O)cc(C)c2cc1C`, the absorption maximum (in CC#N) worked out at 354 nm. Turning to `CCCCC1(c2ccccc2)Nc2ccccc2N=C1c1ccccc1` (stereo not drawn), the absorption maximum (in ClC(Cl)Cl) is on record as 386 nm.

On to `Nc1ccc2ccc(O)cc2c1`, for which the absorption maximum (in O) is recorded as 332 nm. `CC(C)[Si](C#Cc1c2nc3ccccc3nc2c(C#C[Si](C(C)C)(C(C)C)C(C)C)c2nc3c(ccc4cc5ccccc5cc43)nc12)(C(C)C)C(C)C` came in with an absorption maximum (in CCCCCC) of 638 nm.

Compound `C(=C(c1ccccc1)c1ccccc1)c1ccc(-c2ccc(C=C(c3ccccc3)c3ccccc3)cc2)cc1` came in with an absorption maximum (in C1CCOC1) of 351 nm.

On to `Nc1ccc2c(-c3ccc(Br)cc3)c3ccc(=[NH2+])cc-3oc2c1`, for which the absorption maximum (in CCO) was 514 nm. Still for that read-out and setting: for `CCOC(=O)c1cc(C(=O)OCC)c2cc(N(CC)CC)ccc2n1` the value was 453 nm. As for `CCCCCCCCN1c2ccc(C#Cc3ccc(C(F)(F)F)cc3)cc2Sc2cc(C=O)ccc21`, the absorption maximum was found to be 384.01 nm (in C1CCOC1); 380 nm (in CC#N); 376.01 nm (in CCCCCC); 362 nm (in CO); 389.99 nm (in CS(C)=O); 381.99 nm (in Cc1ccccc1). For the same compound, where the note is “in ClC(Cl)Cl”, the absorption maximum is 389.99 nm. In the case of `CC(C)(C)NC(=O)c1cccc2ccc3c4cc(Cl)ccc4c4ccc(Cl)cc4c3c12`, for the setting “in ClCCl”, the absorption maximum turned out to be 335 nm. Where the note is “in O”, `CC[n+]1c(-c2ccccc2)c2cc(N)ccc2c2ccc(N)cc21` came in with an absorption maximum of 480 nm. With `Cc1c(C)c(B(c2c(C)c(C)c(N3c4ccccc4Oc4ccccc43)c(C)c2C)c2c(C)c(C)c(N3c4ccccc4Oc4ccccc43)c(C)c2C)c(C)c(C)c1C#N`, the absorption maximum (in c1ccc([Si](c2ccccc2)(c2ccc(-n3c4ccccc4c4ccccc43)cc2)c2ccc(-n3c4ccccc4c4ccccc43)cc2)cc1) is recorded as 408 nm. `O=P1(c2ccccc2)c2ccc(N3c4ccccc4Sc4ccccc43)cc2-c2cc(N3c4ccccc4Sc4ccccc43)ccc21` registered an absorption maximum (in Cc1ccccc1) of 422 nm. Consider `CN(C)c1ccc2cc3ccc(=[N+](C)C)cc-3oc2c1`, for which the absorption maximum is, setting by setting: (in CCO) 547 nm; (in O) 548 nm. Take `CC(=O)[B-]1(C(C)=O)OC(c2ccccc2)=CC(c2ccccc2)=[O+]1`: the absorption maximum by setting is: (in CC#N) 377 nm; (in ClC(Cl)(Cl)Cl) 382 nm. `CCCCC(CC)COc1cc(OCC(CC)CCCC)c2c#cc3ccc4oc5ccc(c#cc6cc(c#cc7ccc8oc9ccc(c#cc1c2)cc9c8c7)c(C(CCCC)OCCC)cc6C(CCCC)OCCC)cc5c4c3` (stereo not drawn): for the setting “in ClCCl”, the absorption maximum is given as 328 nm. As to `Cc1nc2c(c[n+]1C)CN1C(=O)N([C@H]3O[C@@H](CO)[C@H](O)[C@@H]3O)C=CC1=N2`, the absorption maximum (in CC#N) is listed as 390 nm; the absorption maximum (in CC(C)=O) is 391 nm; the absorption maximum (in CCCCO) was 390 nm; the absorption maximum (in CCCO) was 390 nm; the absorption maximum (in CCO) is recorded as 390 nm; the absorption maximum (in CO) worked out at 390 nm. Also, the absorption maximum is listed as 384 nm (in O), 390 nm (in [2H]OC), 390 nm (in [2H]OCC) and 384 nm (in [2H]O[2H]). As for `Nc1ccc2nc(-c3ccccc3)c(=O)oc2c1`, the absorption maximum (in c1ccccc1) worked out at 402 nm. In turn, `F[B-]1(F)OC(c2ccc(Br)cc2)=Cc2ccc3ccccc3[n+]21` yielded an absorption maximum (in ClC(Cl)Cl) of 430 nm. As for `COc1ccc2cc3c(C)cc(=O)oc3cc2c1`, the absorption maximum runs as follows: (in CC#N) 340 nm; (in CCCCCC) 337 nm; (in CCO) 343 nm; (in CCOC(C)=O) 340 nm; (in CO) 343 nm; (in OCC(F)(F)F) 344 nm. On to `CC1=C(C#Cc2ccc([Si](c3ccccc3)(c3ccccc3)c3ccccc3)cc2)C(C)=[N+]2C1=C(c1ccccc1)c1c(C)c(C#Cc3ccc([Si](c4ccccc4)(c4ccccc4)c4ccccc4)cc3)c(C)n1[B-]2(F)F`, for which the absorption maximum (in ClCCl) is reported as 575 nm. As for `CCN(C(C)=O)c1cc2c(cc1C)C(c1ccccc1C(=O)O)=C1CCCC(/C=C/C3=[N+](C)c4ccc5ccccc5c4C3(C)C)=C1O2`, where the note is “in CCO”, the absorption maximum stood at 678 nm.

`O=c1c2cc(S(=O)(=O)O)ccc2[nH]c2ccc(S(=O)(=O)O)cc12` registered an absorption maximum (in CS(C)=O) of 399 nm and an absorption maximum (in O) of 396 nm. Where the note is “in ClCCl”, `CCCCCCN1C(=O)c2cccc3c(-c4ccc(-c5cc(-c6ccc(Cl)cc6)n(-c6ccccc6)n5)s4)ccc(c23)C1=O` gave an absorption maximum of 402 nm. Still for that read-out and setting: the value for `COC(=O)C1CCN(c2ccc3c(N4CCCCC4)c4ccc(=[N+]5CCC(C(=O)OC)CC5)cc-4oc3c2)CC1` (stereo not drawn) was 482 nm. On to `CC/[NH+]=c1\cc2oc3cc(NCCC(=O)NCC(=O)OC)c4ccccc4c3nc-2cc1C`, for which the absorption maximum by setting is: (in CCO) 600 nm; (in O) 590 nm. Under “in O”, `COc1cc(N(CC(=O)[O-])CC(=O)[O-])c2nc(COc3cc(C)ccc3N(CC(=O)[O-])CC(=O)[O-])ccc2c1` registered an absorption maximum of 356 nm. As for `COc1ccc(/C=C/c2cc(/C=C/c3ccc(N(c4ccccc4)c4ccccc4)cc3)nc(/C=C/c3ccc(N(C)C)cc3)n2)cc1`, the absorption maximum (in ClCCl) was found to be 386 nm.

Compound `Cc1nc(-c2ccc(N3c4ccccc4C(c4ccccc4)(c4ccccc4)c4ccccc43)cc2)cc(-c2ccc(N3c4ccccc4C(c4ccccc4)(c4ccccc4)c4ccccc43)cc2)n1` registered an absorption maximum (in Cc1ccccc1) of 370 nm.

Where the note is “in CO”, `CC1(C)C(/C=C/C2=C(Oc3ccc(CCN=C=S)cc3)C(=C/C=C3/N(CCCS(=O)(=O)[O-])c4ccccc4C3(C)C)/CCC2)=[N+](CCCS(=O)(=O)[O-])c2ccccc21` registered an absorption maximum of 765 nm.

For `COC(=O)c1nc(Br)c(-c2ccccc2)o1`, the absorption maximum (in C1CCCCC1) is 307 nm. As to `CC(C)[Si](C#Cc1ccc(C#Cc2c3cc4ccccc4cc3c(C#C[Si](C(C)C)(C(C)C)C(C)C)c3cc4ccccc4cc23)cc1)(C(C)C)C(C)C`, the absorption maximum (in ClCCl) was 659 nm. Consider `O=c1c2cc(I)ccc2nc2n1[B-](F)(F)[n+]1ccccc1-2`, for which the absorption maximum reads like this: (in CC#N) 345 nm; (in ClCCl) 362 nm.
